Patent publication US6369074B1, “Aminomethylene substituted non-aromatic heterocycles and use as substance P antagonists” (Pfizer Inc., priority 1992, dated 2002)
Where a name gives a salt, the structure may show the parent alone.

melting point | SMILES
217 °C (dec.) | COc1ccc(-n2c(C)ccc2C)cc1CN[C@H]1CCCN[C@H]1c1ccccc1 (as salt: hydrochloride) [Example 19, (2S,3S)-[5-(2,5-Dimethylpyrrol-1-yl)-2-methoxybenzyl]-(2-phenylpiperidin-3-yl) amine]
240 to 244 °C | COc1ccc2c(C)c(C)sc2c1CN[C@H]1CCCN[C@H]1c1ccccc1.Cl.Cl.O (hydrate or solvate)
